PMC5863496, “Mesobuthus Venom-Derived Antimicrobial Peptides Possess Intrinsic Multifunctionality and Differential Potential as Drugs” (Frontiers in Microbiology, 2018)
Ends that are not written are not given here.

How the values were obtained:
Assay in all cases: Inhibition-zone assay (CL)
Assay type in all cases: cell-based
[1] = system: Staphylococcus aureus J685; details: SA J685, N.A. = no activity at 0.8 nmol peptide each well
Procedure: (§1) The antimicrobial activity of seven peptides, including MeuFSPL-1, MeuFSPL-2, Marmelittin, Melittin, Meucin-22, Marcin-22, and MeuTXKβ1, was evaluated by the inhibition-zone assay previously described in our studies (Hultmark, [1998]; Zhu et al., [2012a]; Zhu and Gao, [2014]). Temperatures used were 30 or 37°C for bacteria or 28°C for fungi. Media used were Luria-Bertani (LB) Broth (10 g tryptone, 5 g yeast extract, and 5 g NaCl in 1 l of water) or Nutrient Broth (10 g peptone, 5 g beef extract powder, and 5 g NaCl in 1 l of water) or GYM(Isp2) (4 g yeast extract, 10 g malt extract, 4 g glucose, 2 g CaCO3 in 1 l of water) for bacteria or Potato Dextrose Broth (200 g patato and 20 g glucose in 1 l of water) for fungi. To make plates, 10 μl of microbial culture (~2 × 10^6 bacterial cells or fungal spores/ml) were mixed in 6 ml of medium containing 0.8% agar and poured into Peri dishes of 9.0 cm diameter. Wells with a diameter of 2 mm were punched into the medium, filled with 2 μl of sample each well. In this assay, three different doses of peptides were applied to three independent wells in one standard bacterial plate. After incubation overnight, inhibition zones were measured and used to calculate lethal concentrations (CL), a concentration just sufficient to inhibit bacterial growth (Hultmark, [1998]; Gao et al., [2009]). CL values are calculated from a plot of d^2 against log n, where d is the diameter (in cm) and n is the amount of sample applied in the well (in nmol). The plot is linear and thus CL can be calculated from the slope (k) and the intercept (m) of this plot. The formula used here is CL = 2.93/ak10^m/k, where “a” is the thickness of the bacterial plate and “CL” is in μM.

[2] = system: methicillin-resistant Staphylococcus aureus P1386; details: MRSA P1386, N.A. = no activity at 0.8 nmol peptide each well
Procedure: as §1

[3] = system: Streptococcus mutans ATCC 1.2499; details: SM ATCC 1.2499, N.A. = no activity at 0.8 nmol peptide each well
Procedure: as §1

[4] = system: Bacillus subtilis CGMCC 1.2428; details: BS CGMCC 1.2428, N.A. = no activity at 0.8 nmol peptide each well
Procedure: as §1

[5] = system: Staphylococcus aureus J700; details: SA J700, N.A. = no activity at 0.8 nmol peptide each well
Procedure: as §1

[6] = system: Streptococcus sanguinis ATCC 1.2497; details: SSAN ATCC 1.2497, N.A. = no activity at 0.8 nmol peptide each well
Procedure: as §1

[7] = system: Bacillus megaterium CGMCC 1.0459; details: BM CGMCC 1.0459, N.A. = no activity at 0.8 nmol peptide each well
Procedure: as §1

[8] = system: Staphylococcus aureus J698; details: SA J698, N.A. = no activity at 0.8 nmol peptide each well
Procedure: as §1

[9] = system: Streptococcus salivarius ATCC 1.2498; details: SSAL ATCC 1.2498, N.A. = no activity at 0.8 nmol peptide each well
Procedure: as §1

[10] = system: methicillin-resistant coagulase-negative Staphylococcus P1369; details: MRCNS P1369, N.A. = no activity at 0.8 nmol peptide each well
Procedure: as §1

[11] = system: Staphylococcus warneri ATCC 1.2824; details: SW ATCC 1.2824, N.A. = no activity at 0.8 nmol peptide each well
Procedure: as §1

[12] = system: methicillin-sensitive Staphylococcus aureus CGMCC 1.89; details: MSSA CGMCC 1.89, N.A. = no activity at 0.8 nmol peptide each well
Procedure: as §1

[13] = system: Escherichia coli ATCC 25922; details: EC ATCC 25922, N.A. = no activity at 0.8 nmol peptide each well
Procedure: as §1

[14] = system: penicillin-resistant Staphylococcus epidermidis P1389; details: PRSE P1389, N.A. = no activity at 0.8 nmol peptide each well
Procedure: as §1

[15] = system: Escherichia coli Am. J23a; details: EC Am. J23a, N.A. = no activity at 0.8 nmol peptide each well
Procedure: as §1

[16] = system: Micrococcus luteus CGMCC 1.0290; details: ML CGMCC 1.0290, N.A. = no activity at 0.8 nmol peptide each well
Procedure: as §1

[17] = system: Escherichia coli CIP. J14b; details: EC CIP. J14b, N.A. = no activity at 0.8 nmol peptide each well
Procedure: as §1

[18] = system: Escherichia coli Am. J16c; details: EC Am. J16c, N.A. = no activity at 0.8 nmol peptide each well
Procedure: as §1

[19] = system: penicillin-sensitive Staphylococcus epidermidis P1111; details: PSSE P1111, N.A. = no activity at 0.8 nmol peptide each well
Procedure: as §1

[20] = system: penicillin-resistant Staphylococcus aureus P1383; details: PRSA P1383; inhibition-zone assay; N.A. = no activity at 0.8 nmol peptide each well
Procedure: as §1

Escherichia coli D. G2b = details: EC D. G2b, N.A. = no activity at 0.8 nmol peptide each well
Procedure: as §1

[21] = system: Stenotrophomonas maltophilia CGMCC 1.1788; details: SMAL CGMCC 1.1788, N.A. = no activity at 0.8 nmol peptide each well
Procedure: as §1

[22] = system: methicillin-resistant Staphylococcus aureus P1374; details: MRSA P1374, N.A. = no activity at 0.8 nmol peptide each well
Procedure: as §1

| Compound | Lethal concentration (CL) [1] | Lethal concentration (CL) [2] | Lethal concentration (CL) [3] | Lethal concentration (CL) [4] | Lethal concentration (CL) [5] | Lethal concentration (CL) [6] | Lethal concentration (CL) [7] | Lethal concentration (CL) [8] | Lethal concentration (CL) [9] | Lethal concentration (CL) [10] | Lethal concentration (CL) [11] | Lethal concentration (CL) [12] | Lethal concentration (CL) [13] | Lethal concentration (CL) [14] | Lethal concentration (CL) [15] | Lethal concentration (CL) [19] | Lethal concentration (CL) [20] | Lethal concentration (CL) (Escherichia coli D. G2b) | Lethal concentration (CL) [21] | Lethal concentration (CL) [22] | further results |
| --- | --- | --- | --- | --- | --- | --- | --- | --- | --- | --- | --- | --- | --- | --- | --- | --- | --- | --- | --- | --- | --- |
| CC[C@H](C)[C@H](NC(=O)CN)C(=O)NCC(=O)N[C@@H](C)C(=O)N[C@H](C(=O)N[C@@H](CC(C)C)C(=O)N[C@@H](CCCCN)C(=O)N[C@H](C(=O)N[C@@H](CC(C)C)C(=O)N[C@H](C(=O)N[C@H](C(=O)NCC(=O)N[C@@H](CC(C)C)C(=O)N1CCC[C@H]1C(=O)N[C@@H](C)C(=O)N[C@@H](CC(C)C)C(=O)N[C@H](C(=O)N[C@@H](CO)C(=O)N[C@@H](Cc1c[nH]c2ccccc12)C(=O)N[C@H](C(=O)N[C@@H](CCCCN)C(=O)N[C@@H](CCCNC(=N)N)C(=O)N[C@@H](CCCCN)C(=O)N[C@@H](CCCNC(=N)N)C(=O)N[C@@H](CCC(N)=O)C(=O)N[C@@H](CCC(N)=O)C(N)=O)[C@@H](C)CC)[C@@H](C)CC)[C@@H](C)O)[C@@H](C)O)C(C)C)C(C)C [Melittin, reference compound] | 13.70 µM | 9.3 µM | 9.37 µM | 9.2 µM | 12.08 µM | 16.41 µM | 11.6 µM | 12.08 µM | 18.20 µM | 9.3 µM | 1.37 µM | 7.9 µM | 14.4 µM | 9.1 µM | 18.20 µM | 13.4 µM | 9.1 µM | 18.20 µM | 18.72 µM | 11.6 µM | Lethal concentration (CL) [16]: 7.5 µM; Lethal concentration (CL) [17]: 18.20 µM; Lethal concentration (CL) [18]: 24.54 µM |
| FFGHLFKLATKIIPSFFRRKNQ [MAC-22] | 2.39 µM | 1.35 µM | 4.22 µM | 2.11 µM | 2.39 µM | 9.12 µM | 1.35 µM | 2.39 µM | 4.22 µM | 1.35 µM | 4.45 µM | 1.35 µM | 10.69 µM | 3.72 µM | 12.70 µM | 1.35 µM | 2.11 µM | 12.95 µM | 6.78 µM | 1.35 µM | Lethal concentration (CL) [16]: 2.58 µM; Lethal concentration (CL) [17]: 12.03 µM; Lethal concentration (CL) [18]: 15.15 µM |
| FFGHLFKLATKIIPSLFQ [MUC-18, reference compound] | 8.71 µM | 1.35 µM | 9.32 µM | 2.11 µM | 6.86 µM | 13.72 µM | – | 5.16 µM | 9.24 µM | 4.89 µM | 11.69 µM | 0.87 µM | – | 3.35 µM | 22.72 µM | 0.87 µM | 3.72 µM | 37.28 µM | 13.72 µM | 3.35 µM | Lethal concentration (CL) [17]: 22.72 µM; Lethal concentration (CL) [18]: 22.72 µM |
| FLFSLIPSAISGLINAFK-NH2 [MeuFSPL-2] | 5.36 µM | 5.13 µM | 5.23 µM | 4.01 µM | 8.44 µM | 2.70 µM | 2.67 µM | 4.11 µM | 5.36 µM | 3.88 µM | 8.65 µM | 3.14 µM | 12.16 µM | 5.13 µM | 37.43 µM | 4.77 µM | 3.52 µM | 21.42 µM | 3.52 µM | 3.61 µM | Lethal concentration (CL) [16]: 1.50 µM; Lethal concentration (CL) [17]: 37.43 µM |
| FLFSLIPSAISGLISAFK-NH2 [MeuFSPL-1] | 14.72 µM | 6.24 µM | 4.22 µM | 4.74 µM | 10.92 µM | 5.20 µM | 2.10 µM | 4.80 µM | 4.80 µM | 8.48 µM | 2.81 µM | 5.27 µM | 12.50 µM | 7.36 µM | 25.00 µM | 7.36 µM | 2.81 µM | 25.00 µM | 1.13 µM | 6.16 µM | Lethal concentration (CL) [16]: 2.26 µM; Lethal concentration (CL) [18]: 43.66 µM |
